Results taken from EP1012175B1, “A PEPTIDE WITH AN AFFINITY FOR CLOTTING FACTOR VIII” (Octapharma AG, priority 1997, dated 2003).
Entries after “also recorded” stand apart in the source; their conditions may differ.

Assays:
[1] = test system: rekombinanten Faktor VIII; assay: Membrane spot binding test: immobilised peptides incubated with recombinant factor VIII (Kogenate), detected with anti-FVIII antibodies; conditions: peptide immobilised on membrane; Kogenate 250 U in 10 ml PBS pH 7.0 with 1% BSA, 2 h; binders appear as coloured spots
Description: (§1) Die Peptide Seq. Id. No. 55 bis 90 wurden auf einer Membran immobilisiert. Nach Äquilibrieren mit PBS Puffer pH 7.0 wurde eine Membran mit Faktor VIII Octavi® (240 Units in 10 ml PBS pH 7.0 mit 1% BSA), eine andere mit Kogenate® (250 U in 10 ml PBS, pH 7.0 mit 1% BSA) und eine nur mit PBS, pH 7.0 mit 1% BSA für zwei Stunden inkubiert. Die mit den Peptiden besetzten Membranen wurden sorgfältig mit PBS Puffer pH 7.0 gewaschen und anschließend mit den Anti-FVIII Antikörpern (Chemicon International Inc., MAB038, Sera-Lab MAS 530, MAS 531, MAS 532) für eine Stunde versetzt. Nach Waschen und Inkubieren mit Anti-Maus-IgG/alkalische Phosphatase Konjugat (1:1000, Sigma Chemicals, A-4338) wurde mit Hilfe von NBT und BCIP in 0,1 M Trispuffer, pH 9,2, entwickelt. Faktor VIII bindende Peptide erschienen als gefärbte Spots. Die Kontrollmembran (nur mit PBS pH 7.0 ohne Faktor VIII) wurde mit den beiden anderen verglichen.

[2] = test system: pdFVIII (Faktor VIII aus Plasma); assay: Membrane spot binding test: immobilised peptides incubated with plasma-derived factor VIII (Octavi), detected with anti-FVIII antibodies; parameters: species or system human; conditions: peptide immobilised on membrane; Octavi 240 Units in 10 ml PBS pH 7.0 with 1% BSA, 2 h; binders appear as coloured spots
Description: as §1

pdFVIII = assay: Affinity chromatography of pdFVIII on peptide membranes; eluates analysed by SDS-PAGE and Western blot; type: binding, human; conditions: for Banden in der SDS-PAGE unter reduzierenden Bedingungen und Silberfärbung / Western Blot des Eluates: eluate of pdFVIII run; for Banden in der SDS-PAGE unter reduzierenden Bedingungen und Silberfärbung / Elutionspeak: compared with (βAla)2 control membrane; for Western Blot des Eluates: control membrane weakly positive; for Eignung für die Affinitätschromatographie von pdFVIII: general statement of the description; for Elutionspeak: pdFVIII, elution with 0,1 M Glycin pH 3.0
Source text: (§2) Aus Membranen, auf die die jeweiligen Peptide immobilisiert wurden, wurden jeweils 30 Scheiben mit einem Durchmesser von 11 mm ausgestanzt. Diese wurden in eine HR 10 Säule (Pharmacia Biotechnology, Uppsala, Schweden) gepackt und zwischen zwei Stempeln fixiert.
(§3) Für alle chromatographischen Experimente wurde das Chromatographiesystem ProSys (Biosepra Inc. Marlborough, USA) verwendet.
(§4) PBS Puffer pH 7.0 wurde als Äquilibrierungs- und Waschpuffer verwendet. Für die Elution wurde ein 0,1 M Glycinpuffer pH 3.0 angewandt. Die Flußgeschwindigkeit betrug bei allen Versuchen 0,1 ml/min.
Lyophilisierter Faktor VIII aus Plasma wurde in 11 ml destilliertem Wasser zu einer Konzentration von 90 Units/ml aufgelöst. Davon wurden jeweils 4 ml mit einer Flußrate von 0,1 ml/min aufgetragen. Anschließend wurden die Affinitätsträger mit PBS-Puffer pH 7.0 gewaschen bis das UV Signal (280 nm) wieder die Basislinie erreichte. Das gebundene Material wurde mit 0,1 M Glycin pH 3.0 eluiert. Die gesammelten Fraktionen wurde mittels SDS-Page unter reduzierenden Bedingungen und Western Blot analysiert. Auf diese Weise wurden Peptide und der ßAla-ßAla-Blank auf ihre Fähigkeit Faktor VIII aus dem Octavipräparat zu binden untersucht.
(§5) Der Durchlauf und die Eluate aller Läufe wurden gesammelt und mittels SDS-PAGE unter reduzierenden Bedingungen und Western-Blot analysiert.
Für die Auftrennung wurden 4 bis 20% Tris-Glycin Gele von Novex verwendet. Die Proben wurden mit SDS-Probepuffer (1,5 M Tris HCl pH 8.45, 1,2 ml Glycerin, 0,4 g SDS, 0,1% Coomassie Blue, 0,1% Phenol Rot pro 10 ml), und 5% ß-Mercaptoethanol versetzt und über Nacht bei 4°C inkubiert. Nach der Trennung wurden die Gele silbergefärbt und eingescannt.
Nach Beendigung der elektrophoretischen Trennung wurden die Gele auf eine Nitrocellulose Membran bei 200 mA konstant für zwei Stunden elektrogeblottet. Anschließend wurde die Membran mit PBS + 3% BSA für zwei Stunden blockiert. Nach Waschen mit PBS Puffer erfolgte die Zugabe der Anti-FVIII Antikörpermischung (Chemicon International Inc., MAB038, Sera-Lab MAS 530, MAS 531, MAS 532) für zwei Stunden. Nach Waschen mit PBS wurde mit Anti Maus IgG alkalische Phosphatase (1:1000, Sigma Chemicals, A-3438) für eine Stunde inkubiert. Die Entwicklung erfolgte mit 0,1 M Tris, pH 9.2, NBT und BCIP.
(§6) Die Affinitätschromatographie wurde wie im Beispiel 1 beschrieben, durchgeführt.

[3] = test system: rekombinantem Faktor VIII aus Kogenate®; assay: Affinity chromatography of recombinant factor VIII (Kogenate) on peptide membranes; eluates analysed by Western blot; type: binding; conditions: for Western Blot der Eluate: eluate of rFVIII (Kogenate) run, control membrane also positive; for Elutionspeak: rFVIII (Kogenate), elution with 0,1 M Glycin pH 3.0, compared with ßAla-ßAla control membrane
Source text: as §2, §3, §4
Die Bindung von rekombinantem Faktor VIII wurde mittels Kogenate® (Firma Bayer) untersucht. Jeweils 400 µl des Präparates (200 Units) wurden mit 1.400 µl destilliertem Wasser verdünnt und anschließend mit einer Flußrate von 0,1 ml/min auf den Affinitätsträger aufgetragen. Das Waschen erfolgte wiederum mit PBS, pH 7.0 und die darauf folgende Elution mit 0,1 M Glycin, pH 3.0. Die Fraktionen wurden mittels SDS-Page unter reduzierenden Bedingungen und Western-Blot analysiert.
as §5
Für die Auftrennung wurden 4 bis 20% Tris-Glycin Gele von Novex verwendet. […] Nach der Trennung wurden die Gele silbergefärbt und eingescannt.
Nach Beendigung der elektrophoretischen Trennung wurden die Gele auf eine Nitrocellulose Membran bei 200 mA konstant für zwei Stunden elektrogeblottet. Anschließend wurde die Membran mit PBS + 3% BSA für zwei Stunden blockiert. […] Die Entwicklung erfolgte mit 0,1 M Tris, pH 9.2, NBT und BCIP.
as §6

Row | Substance | Bindung von rekombinantem Faktor VIII [1] | Bindung zu pdFVIII (Faktor VIII aus Plasma) [2] | also measured
1 | 61 (VMKSCEYC) [compound 61] | keinen rekombinanten Faktor VIII | Bindung zu pdFVIII | –
2 | 66 (VMKSWEEF) [compound 66] | auffallende Affinität; also recorded: binden rekombinanten Faktor VIII | auffallende Affinität; also recorded: Bindung zu pdFVIII | Banden in der SDS-PAGE unter reduzierenden Bedingungen und Silberfärbung (pdFVIII): intensiver gefärbte Banden; Western Blot des Eluates (pdFVIII): positiv; Eignung für die Affinitätschromatographie von pdFVIII (pdFVIII): eignen sich insbesondere; Elutionspeak (pdFVIII): größere Elutionspeaks; Western Blot der Eluate [3]: positiv; Eignung für die Affinitätschromatographie von rFVIII (rekombinantem Faktor VIII) ([3]; general statement of the description): eignen sich insbesondere; Elutionspeak [3]: deutlich größer
3 | 68 (EWIKCEEF) [compound 68] | binden rekombinanten Faktor VIII | – | –
4 | 71 (EWIKWEYC) [compound 71] | binden rekombinanten Faktor VIII | Bindung zu pdFVIII | –
5 | 72 (EWIKWEEF) [compound 72] | auffallende Affinität; also recorded: binden rekombinanten Faktor VIII | auffallende Affinität; also recorded: Bindung zu pdFVIII | Banden in der SDS-PAGE unter reduzierenden Bedingungen und Silberfärbung (pdFVIII): intensiver gefärbte Banden; Western Blot des Eluates (pdFVIII): positiv; Eignung für die Affinitätschromatographie von pdFVIII (pdFVIII): eignen sich insbesondere; Elutionspeak (pdFVIII): größere Elutionspeaks
6 | 76 (EWKSEFEF) [compound 76] | – | Bindung zu pdFVIII | –
7 | 77 (EWKSWEYC) [compound 77] | – | Bindung zu pdFVIII | –
8 | 78 (EWKSWEEF) [compound 78] | auffallende Affinität | auffallende Affinität; also recorded: Bindung zu pdFVIII | –
9 | 84 (EYIKWEEF) [compound 84] | auffallende Affinität | auffallende Affinität | –
10 | 89 (EYKSWEYC) [compound 89] | auffallende Affinität | auffallende Affinität; also recorded: Bindung zu pdFVIII | –
11 | EYKSWEEF [Seq. Id. No. 90, Peptid, 8 Aminosäuren] | auffallende Affinität | auffallende Affinität; also recorded: Bindung zu pdFVIII | Western Blot der Eluate [3]: positiv; Elutionspeak [3]: deutlich größer
